Data on 23 compounds can be found in ChEMBL document CHEMBL1123852, “Synthesis and structure-activity studies of corticosteroid 17-heterocyclic aromatic esters. 1. 9 alpha, 11 beta-dichloro series” (1987).

SMILES strings stand for the structures.

For assay [1], the species on record is Mus musculus. Nature of the assay: Antiinflammatory potency to betamethasone 17-valerate measured in mice using 5 day Tonelli croton oil ear test. Type of assay: functional.
The species named for assay [2] is Mus musculus. Briefly: Antiinflammatory potency to betamethasone 17-valerate measured in mice using 5 hr Tonelli croton oil ear test. Type of assay: functional.

`CC(=O)OCC(=O)[C@@]1(OC(=O)c2cccs2)C(C)CC2C3CCC4=CC(=O)C=CC4(C)[C@@]3(Cl)C(Cl)CC21C` (some centres undefined): the results for the Topical potency in assay [1] and in assay [2] were 0.8 and 1.3, respectively.
The matching figures for `CC1CC2C3CCC4=CC(=O)C=CC4(C)[C@@]3(Cl)C(Cl)CC2(C)[C@@]1(OC(=O)c1ccoc1)C(=O)CCl` (some centres undefined): 1.7 and 1.
Take `CC1CC2C3CCC4=CC(=O)C=CC4(C)[C@@]3(Cl)C(Cl)CC2(C)[C@@]1(OC(=O)c1ccco1)C(=O)CO` (some centres undefined): in assay [2], the Topical potency was determined as 0.8.
As to `CC(=O)OCC(=O)[C@@]1(OC(=O)c2ccoc2)C(C)CC2C3CCC4=CC(=O)C=CC4(C)[C@@]3(Cl)C(Cl)CC21C` (some centres undefined), the Topical potency worked out at 1.4 in assay [1] and 1.3 in assay [2].
In turn, `CC1CC2C3CCC4=CC(=O)C=CC4(C)[C@@]3(Cl)C(Cl)CC2(C)[C@@]1(OC(=O)c1ccoc1)C(=O)CO` (some centres undefined) returned a Topical potency in assay [2] of 0.7.
Still for that read-out and setting: then `CC1CC2C3CCC4=CC(=O)C=CC4(C)[C@@]3(Cl)C(Cl)CC2(C)[C@@]1(OC(=O)c1cccs1)C(=O)CO` (some centres undefined), with 0.8.
Turning to `CC(=O)OCC(=O)[C@@]1(OC(=O)c2ccc(C)s2)C(C)CC2C3CCC4=CC(=O)C=CC4(C)[C@@]3(Cl)C(Cl)CC21C` (some centres undefined), the Topical potency in assay [1] came to 0.56; in assay [2], 1.2.
Regarding `CC(=O)OCC(=O)[C@@]1(OC(=O)c2cccn2C)C(C)CC2C3CCC4=CC(=O)C=CC4(C)[C@@]3(Cl)C(Cl)CC21C` (some centres undefined), in assay [2], the Topical potency turned out to be 1.1.
As to `CC(=O)OCC(=O)[C@@]1(OC(=O)c2ccco2)C(C)CC2C3C[C@H](F)C4=CC(=O)C=CC4(C)[C@@]3(Cl)C(Cl)CC21C` (some centres undefined), the Topical potency in assay [1] is 1.8; in assay [2], 3.3.
For `C[C@H]1CC2C3CCC4=CC(=O)C=C[C@]4(C)[C@@]3(Cl)C(Cl)C[C@]2(C)[C@@]1(OC(=O)c1ccco1)C(=O)CCl` (some centres undefined) the same measures were 0.8 and 1.2.
The matching figures for `CC(=O)OCC(=O)[C@@]1(OC(=O)c2ccco2)[C@@H](C)CC2C3CCC4=CC(=O)C=C[C@]4(C)[C@@]3(Cl)C(Cl)C[C@@]21C` (some centres undefined): 1.7 and 1.3.
Turning to `C[C@@H]1CC2C3CCC4=CC(=O)C=C[C@]4(C)[C@@]3(Cl)C(Cl)C[C@]2(C)[C@@]1(OC(=O)c1ccco1)C(=O)CCl` (some centres undefined), the Topical potency is recorded as 8.2 in assay [1] and 1.9 in assay [2].
For `CC(=O)OCC(=O)[C@@]1(OC(=O)c2ccco2)[C@H](C)CC2C3CCC4=CC(=O)C=C[C@]4(C)[C@@]3(Cl)C(Cl)C[C@@]21C` (some centres undefined) the same measures were 1.2 and 1.4.
The matching figures for `COCC(=O)OCC(=O)[C@@]1(OC(=O)c2ccco2)C(C)CC2C3CCC4=CC(=O)C=CC4(C)[C@@]3(Cl)C(Cl)CC21C` (some centres undefined): 3 and 1.
The compound `CC(=O)OCC(=O)[C@@]1(OC(=O)c2cnc3ccccc3n2)C(C)CC2C3CCC4=CC(=O)C=CC4(C)[C@@]3(Cl)C(Cl)CC21C` (some centres undefined) yielded a Topical potency in assay [2] of 0.3.
Turning to `CC(=O)OCC(=O)[C@@]1(OC(=O)c2ccsc2)C(C)CC2C3CCC4=CC(=O)C=CC4(C)[C@@]3(Cl)C(Cl)CC21C` (some centres undefined), the results for the Topical potency in assay [1] and in assay [2] were 3.2 and 0.9, respectively.
`CCCC(=O)OCC(=O)[C@@]1(OC(=O)c2ccco2)C(C)CC2C3CCC4=CC(=O)C=CC4(C)[C@@]3(Cl)C(Cl)CC21C` (some centres undefined) had a Topical potency in assay [2] of 1.
Regarding `CC1CC2C3CCC4=CC(=O)C=CC4(C)[C@@]3(Cl)C(Cl)CC2(C)[C@@]1(OC(=O)c1ccco1)C(=O)CF` (some centres undefined), the results for the Topical potency in assay [1] and in assay [2] were 4 and 1.8, respectively.
The matching figures for `CC1CC2C3C[C@H](F)C4=CC(=O)C=CC4(C)[C@@]3(Cl)C(Cl)CC2(C)[C@@]1(OC(=O)c1ccco1)C(=O)CCl` (some centres undefined): 3 and 2.5.
For `CC1CC2C3CCC4=CC(=O)C=CC4(C)[C@@]3(Cl)C(Cl)CC2(C)[C@@]1(OC(=O)c1cccs1)C(=O)CCl` (some centres undefined) the same measures were 3.3 and 0.7.
For `CCC(=O)OCC(=O)[C@@]1(OC(=O)c2ccco2)C(C)CC2C3CCC4=CC(=O)C=CC4(C)[C@@]3(Cl)C(Cl)CC21C` (some centres undefined) the same measures were 0.9 and 1.1.
As to `CC(=O)OCC(=O)[C@@]1(OC(=O)c2ccc(Br)o2)C(C)CC2C3CCC4=CC(=O)C=CC4(C)[C@@]3(Cl)C(Cl)CC21C` (some centres undefined), the Topical potency in assay [2] is recorded as 0.6.
Turning to `CCCCC(=O)O[C@]1(C(=O)CO)[C@@H](C)C[C@H]2[C@@H]3CCC4=CC(=O)C=C[C@]4(C)[C@@]3(F)[C@@H](O)C[C@@]21C` [BETAMETHASONE VALERATE], the Topical potency in assay [1] and in assay [2] was 1 in each case.
